In PubChem BioAssay (NCI):
Where “and” joins values, the source holds several entries; their conditions need not be identical. Equal entries are not always repeated.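 Protocol summary: plate cells (96-well), add compound at 5 concentrations, incubate 48 h, interpolate endpoints linearly. Abbreviation: GI50, concentration required for 50% inhibition of growth. TGI: total growth inhibition.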

Tests used:
Assay in all cases: NCI anticancer screen, dose series, 48 h
DU-145 prostate = test system: DU-145 prostate
SR leukemia = test system: SR leukemia
UACC-62 melanoma = test system: UACC-62 melanoma
SK-MEL-2 melanoma = test system: SK-MEL-2 melanoma
SF-539 CNS = test system: SF-539 CNS
SK-OV-3 ovarian = test system: SK-OV-3 ovarian
M14 melanoma = test system: M14 melanoma
IGROV1 ovarian = test system: IGROV1 ovarian
MOLT-4 leukemia = test system: MOLT-4 leukemia
UACC-257 melanoma = test system: UACC-257 melanoma
OVCAR-3 ovarian = test system: OVCAR-3 ovarian
MDA-N = test system: MDA-N
A498 renal = test system: A498 renal

SMILES	TGI (DU-145 prostate)	TGI (SR leukemia) [µM]	TGI (UACC-62 melanoma) [µM]	TGI (SK-MEL-2 melanoma) [µM]	TGI (SF-539 CNS)	TGI (SK-OV-3 ovarian)	TGI (M14 melanoma)	TGI (IGROV1 ovarian) [µM]	TGI (MOLT-4 leukemia) [µM]	TGI (UACC-257 melanoma) [µM]	TGI (OVCAR-3 ovarian)	TGI (MDA-N) [µM]	TGI (A498 renal)	GI50 (A498 renal)	GI50 (SK-OV-3 ovarian)
C[C@H]1CC[C@@]2(OC1)O[C@H]1C[C@H]3[C@@H]4CC[C@@H]5C[C@@H](OC6OC(CO)C(O)C(O)C6OC6OC(CO)C(O)C(O)C6O)CC[C@]5(C)[C@H]4CC[C@]3(C)[C@H]1[C@@H]2C (some centres undefined)	4.1 µM	4.3	4.16	4.03	3.72 µM	3.29 µM	3.75 µM	4.14	3.79	3.86	3.88 µM				
Cn1c(CNc2ccc(-c3n[nH]c(=S)n3C)cc2)n[nH]c1=S	> 100 µM			> 100	> 100 µM	> 100 µM	> 100 µM	> 100	> 100	> 100	> 100 µM	> 100			
CCOC(=O)c1c(NC(=O)c2ccccc2)c(C#N)c2n1CCCCC2	> 100 µM	> 100	> 100			> 100 µM	> 100 µM	> 100	> 100	> 100		> 100			
CC(C)(CN1CCCCC1)C(=O)/C=C/c1ccc(Br)cc1		7.68	> 22.9	9.04	4.96 µM	8.18 µM	4.75 µM	6.48	6.87	20.3	5.51 µM		5.8 µM		
CCN1/C(=C/C#C/C(C)=C\c2sc3ccc(Cl)cc3[n+]2CC)Sc2ccc(Cl)cc21	15.5 µM	> 100	13.6	4.85	16.1 µM	22 µM	16.1 µM	14.5		22		12.9			
COC(=O)[C@@]12OC[C@]34C([C@@H](O)C1O)[C@@]1(C)CC(=O)C(OC(=O)CC(C)C(F)(F)F)=C(C)C1C[C@H]3OC(=O)[C@H](O)[C@H]42 (some centres undefined)		19.9	4.37	15.5	10.9 µM	> 62.5 µM	9.76 µM	45.5	19.4	35.3			0.625 µM		
CC1=NN(c2nc(N)nc(C(C)Cl)n2)C(C)(C)C1 (centres undefined)	> 100 µM	> 100	> 100	> 100	> 100 µM	> 100 µM	> 100 µM	> 100	> 100	> 100			> 100 µM		
CN(NC1=NCCO1)c1ccc2ccccc2c1	> 100 µM	> 100	> 100	97.2	82.6 µM	> 100 µM	> 100 µM	> 100	> 100	> 100	72.7 µM		> 100 µM		
O=C(c1ccc(Cl)cc1)N(C(=O)N1CCCCC1)c1ccccc1	> 100 µM		> 100	> 100	> 100 µM	> 100 µM	> 100 µM	> 100	72		> 100 µM	> 100	> 100 µM		
CN1CCOC(C(NC(=O)c2ccccc2)c2ccccc2)C1=O (centres undefined)		> 100	> 100	> 100	> 100 µM	> 100 µM	> 100 µM	> 100	> 100	> 100	> 100 µM		> 100 µM		
COC(=O)C(C(=O)C(=O)Nc1c(Cl)cc([N+](=O)[O-])cc1Cl)c1csc(-n2nc(C3=CCCCC3)cc2-c2ccccc2)n1 (centres undefined)		78	> 100	> 100	> 100 µM	> 100 µM	> 100 µM		> 100	> 100	> 100 µM		> 100 µM		
CCOC(=O)C1S(=O)(=O)OCCOS1(=O)=O		> 100	> 100	> 100	> 100 µM	> 100 µM	> 100 µM	> 100	> 100	> 100	> 100 µM				
O=C1CC(c2cccc(Cl)c2)Nc2ccc(N3CCCC3)cc21 (centres undefined)	2.25 µM and 13.6 µM					> 100 µM	> 100 µM			> 100	> 100 µM		> 100 µM		
COc1cc([C@@H]2c3cc4c(cc3[C@@H](Nc3ccc(NC(=O)c5cc([N+](=O)[O-])cn5C)cc3)[C@H]3COC(=O)[C@H]23)OCO4)cc(OC)c1O	0.0772 µM and 0.0578 µM				0.446 µM and 0.414 µM	> 100 µM and 19.1 µM	2.47 µM and 4.94 µM			> 65.5	10.7 µM and 3.15 µM		0.402 µM and 0.476 µM	0.0233 µM and 0.0897 µM	0.104 µM and 0.262 µM
O=C1c2ccccc2N2OC3(N4CCOCC4)CCCC3C12c1ccccc1 (centres undefined)		> 100	> 100		> 100 µM	> 100 µM	> 100 µM	> 100	> 100	> 100			> 100 µM		
COc1cc(C2c3cc4c(cc3OC(NN)C2C)OCO4)cc(OC)c1O (centres undefined)	> 100 µM		18.9	13.1	45.4 µM		> 100 µM	> 100		93	> 100 µM				
CC(C)C(Cl)CCC(C)(Cl)C(=O)CBr (centres undefined)	36.7 µM		10.2	21.9	32.1 µM	39.1 µM	11.3 µM	16.9		16.6	16.4 µM	7.25	30.3 µM		
N#Cc1ccccc1OCCOc1ccccc1C#N	> 100 µM	> 100	> 100	> 100	> 100 µM	> 100 µM	> 100 µM	> 100	> 100	> 100	> 100 µM		> 100 µM		
O=c1cc(Nc2cccc(O)c2)[nH]c(=O)[nH]1		> 100	> 100	> 100	> 100 µM	> 100 µM	> 100 µM	> 100	> 100	> 100	> 100 µM	> 100	> 100 µM		
CC(=O)OC1COC(N2CCc3cc([N+](=O)[O-])ccc32)C(OC(C)=O)C1OC(C)=O (centres undefined)		> 100	> 100	> 100	> 100 µM	> 100 µM	> 100 µM	> 100	> 100	> 100	> 100 µM		> 100 µM		
